Compound	melting point [°C]
Cc1cc(N2N=C(c3ccc(N)cc3)c3cc4c(cc3CC2C)OCO4)on1 (racemic) [Example 185, (±)-5-(4-Aminophenyl)-8-methyl-7-(3-methyl-isoxazol-5-yl)-8,9-dihydro-7H-1,3-dioxolo-[4,5-h][2,3]benzodiazepine]	100 to 103
C[C@H]1Cc2cc3c(cc2C(c2ccc(N)cc2)=NN1C1=NCCS1)OCO3 [Example 70, (S)-5-(4-Aminophenyl)-7-(4,5-dihydro-thiazol-2-yl)-8-methyl-8,9-dihydro-7H-1,3-dioxolo-[4,5-h][2,3]benzodiazepine]	150 to 152
CC1=Cc2cc3c(cc2C(c2ccc(C)c(N)c2)=NN1c1nnc(C)s1)OCO3 [Example 96, (±)-5-(3-Amino-4-methylphenyl)-8-methyl-7-(5-methyl-1,3,4-thiadiazol-2-yl)-7H-1,3-dioxolo-[4,5-h][2,3]benzodiazepine]	125
CC(=O)Nc1ccc(C2=NN(c3nccs3)[C@H](C)Cc3cc4c(cc32)OCO4)cc1 [Example 123, (R)-5-(4-Acetylaminophenyl)-8-methyl-7-(2-thiazolyl)-8,9-dihydro-7H-1,3-dioxolo[4,5-h][2,3]benzodiazepine]	126
Cc1cc(C2=NN(c3nnc(C4CC4)s3)[C@H](C)Cc3cc4c(cc32)OCO4)ccc1[N+](=O)[O-] [Example 139, (R)-7-(5-Cyclopropyl-1,3,4-thiadiazol-2-yl)-8-methyl-5-(3-methyl-4-nitrophenyl)-8,9-dihydro-7H-1,3-dioxolo[4,5-h][2,3]benzodiazepine]	126 to 130
Cc1cc(C2=NN(c3nnc(CO)s3)[C@H](C)Cc3cc4c(cc32)OCO4)ccc1[N+](=O)[O-] [Example 140, (R)-7-(5-Hydroxymethyl-1,3,4-thiadiazol-2-yl)-8-methyl-5-(3-methyl-4-nitrophenyl)-8,9-dihydro-7H-1,3-dioxolo[4,5-h][2,3]benzodiazepine]	142 to 145
CC(=O)OCc1nnc(N2N=C(c3ccc([N+](=O)[O-])c(C)c3)c3cc4c(cc3C[C@H]2C)OCO4)s1 [Example 141, (R)-7-(5-Acetoxymethyl-1,3,4-thiadiazol-2-yl)-8-methyl-5-(3-methyl-4-nitrophenyl)-8,9-dihydro-7H-1,3-dioxolo[4,5-h][2,3]benzodiazepine]	110 to 115
Cc1cc(C2=NN(c3nnc(CC#N)s3)[C@H](C)Cc3cc4c(cc32)OCO4)ccc1[N+](=O)[O-] [Example 142, (R)-7-(5-Cyanomethyl-1,3,4-thiadiazol-2-yl)-8-methyl-5-(3-methyl-4-nitrophenyl)-8,9-dihydro-7H-1,3-dioxolo[4,5-h][2,3]benzodiazepine]	118 to 122
CSCc1nnc(N2N=C(c3ccc([N+](=O)[O-])c(C)c3)c3cc4c(cc3C[C@H]2C)OCO4)s1 [Example 143, (R)-8-Methyl-5-(3-methyl-4-nitrophenyl)-7-(5-methylthiomethyl-1,3,4-thiadiazol-2-yl)-8,9-dihydro-7H-1,3-dioxolo[4,5-h][2,3]benzodiazepine]	132 to 134
CCOC(=O)c1nnc(N2N=C(c3ccc([N+](=O)[O-])c(C)c3)c3cc4c(cc3C[C@H]2C)OCO4)s1 [Example 144, (R)-7-(5-Ethoxycarbonyl-1,3,4-thiadiazol-2-yl)-8-methyl-5-(3-methyl-4-nitrophenyl)-8,9-dihydro-7H-1,3-dioxolo[4,5-h][2,3]benzodiazepine]	115 to 118
C/C=C/c1nnc(N2N=C(c3ccc([N+](=O)[O-])c(C)c3)c3cc4c(cc3C[C@H]2C)OCO4)s1 [Example 146, (R)-8-Methyl-5-(3-methyl-4-nitrophenyl)-7-{5-[1-(1E)-propen-1-yl]-1,3,4-thiadiazol-2-yl}-8,9-dihydro-7H-1,3-dioxolo[4,5-h][2,3]benzodiazepine]	232 to 237
CC(=O)OCc1nnc(N2N=C(c3ccc(N)c(C)c3)c3cc4c(cc3C[C@H]2C)OCO4)s1 [Example 172, (R)-7-(5-Acetoxymethyl-1,3,4-thiadiazol-2-yl)-5-(4-amino-3-methylphenyl)-8-methyl-8,9-dihydro-7H-1,3-dioxolo[4,5-h][2,3]benzodiazepine]	204 to 206

Further lines, results first:

melting point [°C]	Compound
162 to 163	CC(=O)Nc1ccc(C2=NN(c3ncccn3)C(C)Cc3cc4c(cc32)OCO4)cc1 (racemic) [Example 128, (±)-5-(4-Acetylaminophenyl)-8-methyl-7-(2-pyrimidinyl)-8,9-dihydro-7H-1,3-dioxolo-[4,5-h][2,3]benzodiazepine]
164 to 170	CC(=O)Nc1ccc(C2=NN(c3ccc(Cl)nn3)C(C)Cc3cc4c(cc32)OCO4)cc1 (racemic) [Example 129, (±)-5-(4-Acetylaminophenyl)-7-(3-chloro-pyridazin-6-yl)-8-methyl-8,9-dihydro-7H-1,3-dioxolo-[4,5-h][2,3]benzodiazepine]
258 to 262	CC(=O)Nc1ccc(C2=NN(c3nnc(C)s3)C(C)Cc3cc4c(cc32)OCO4)cc1C (racemic) [Example 131, (±)-5-(4-Acetylamino-3-methylphenyl)-8-methyl-7-(5-methyl-1,3,4-thiadiazol-2-yl)-8,9-dihydro-7H-1,3-dioxolo[4,5-h][2,3]benzodiazepine]
148 to 150	Cc1ncc(N2N=C(c3ccc(N)cc3)c3cc4c(cc3CC2C)OCO4)o1 (racemic) [Example 187, (±)-5-(4-Aminophenyl)-8-methyl-7-(2-methyl-1,3-oxazol-5-yl)-8,9-dihydro-7H-1,3-dioxolo-[4,5-h][2,3]benzodiazepine]
124 to 130	CC1Cc2cc3c(cc2C(c2ccc(N)cc2)=NN1C1=NC(=O)C(C)(C)S1)OCO3 (racemic) [Example 193, (±)-5-(4-Aminophenyl)-8-methyl-7-(5,5-dimethyl-4-oxo-4,5-dihydrothiazol-2-yl)-8,9-dihydro-7H-1,3-dioxolo-[4,5-h][2,3]benzodiazepine]
105	CCc1nnc(N2N=C(c3ccc([N+](=O)[O-])cc3)c3cc4c(cc3C[C@H]2C)OCO4)s1 [Example 31, (R)-7-(5-Ethyl-1,3,4-thiadiazol-2-yl)-8-methyl-5-(4-nitrophenyl)-8,9-dihydro-7H-1,3-dioxolo[4,5-h][2,3]benzodiazepine]
124 to 128	C[C@H]1Cc2cc3c(cc2C(c2ccc(N)cc2)=NN1c1nccs1)OCO3 [Example 62, (S)-5-(4-Aminophenyl)-8-methyl-7-(2-thiazolyl)-8,9-dihydro-7H-1,3-dioxolo[4,5-h][2,3]benzodiazepine]
200 to 204	Nc1ccc(C2=NN(c3nccs3)CCc3cc4c(cc32)OCO4)cc1 [Example 74, 5-(4-Aminophenyl)-7-(2-thiazolyl)-8,9-dihydro-7H-1,3-dioxolo[4,5-h][2,3]benzodiazepine]
124 to 128	CC(=O)Nc1ccc(C2=NN(c3nccs3)[C@@H](C)Cc3cc4c(cc32)OCO4)cc1 [Example 124, (S)-5-(4-Acetylaminophenyl)-8-methyl-7-(2-thiazolyl)-8,9-dihydro-7H-1,3-dioxolo-[4,5-h][2,3]benzodiazepine]
143 to 145	CC(=O)Nc1ccc(C2=NN(C3=NCCS3)[C@H](C)Cc3cc4c(cc32)OCO4)cc1 [Example 125, (R)-5-(4-Acetylaminophenyl)-7-(4,5-dihydro-thiazol-2-yl)-8-methyl-8,9-dihydro-7H-1,3-dioxolo-[4,5-h][2,3]benzodiazepine]
148 to 154	CC(=O)Nc1ccc(C2=NN(C3=NCCS3)[C@@H](C)Cc3cc4c(cc32)OCO4)cc1 [Example 126, (S)-5-(4-Acetylaminophenyl)-7-(4,5-dihydro-thiazol-2-yl)-8-methyl-8,9-dihydro-7H-1,3-dioxolo-[4,5-h][2,3]benzodiazepine]
276 to 277	CC(=O)Nc1ccc(C2=NN(c3nnc(C)s3)[C@H](C)Cc3cc4c(cc32)OCO4)cc1 [Example 130, (R)-5-(4-Acetylaminophenyl)-8-methyl-7-(5-methyl-1,3,4-thiadiazol-2-yl)-8,9-dihydro-7H-1,3-dioxolo-[4,5-h][2,3]benzodiazepine]
240 to 243	Cc1cc(C2=NN(C3=NN=C(C(=O)OCc4ccccc4)[SH]3CN)[C@H](C)Cc3cc4c(cc32)OCO4)ccc1[N+](=O)[O-] (stereo partly drawn) [Example 145, (R)-7-(5-Benzyloxycarbonyl-aminomethyl-1,3,4-thiadiazol-2-yl)-8-methyl-5-(3-methyl-4-nitrophenyl)-8,9-dihydro-7H-1,3-dioxolo[4,5-h][2,3]benzodiazepine]
217 to 224	CCCCCCc1nnc(N2N=C(c3ccc([N+](=O)[O-])c(C)c3)c3cc4c(cc3C[C@H]2C)OCO4)s1 [Example 147, (R)-7-(5-Hexyl-1,3,4-thiadiazol-2-yl)-8-methyl-5-(3-methyl-4-nitrophenyl)-8,9-dihydro-7H-1,3-dioxolo[4,5-h][2,3]benzodiazepine]
125 to 128	Cc1cc(C2=NN(C3=NCCS3)[C@H](C)Cc3cc4c(cc32)OCO4)ccc1N [Example 163, (R)-5-(4-Amino-3-methylphenyl)-8-methyl-7-(4,5-dihydro-thiazol-2-yl)-8,9-dihydro-7H-1,3-dioxolo-[4,5-h][2,3]benzodiazepine]
124 to 127	Cc1cc(C2=NN(c3nccs3)[C@H](C)Cc3cc4c(cc32)OCO4)ccc1N [Example 164, (R)-5-(4-Amino-3-methylphenyl)-8-methyl-7-(thiazol-2-yl)-8,9-dihydro-7H-1,3-dioxolo-[4,5-h][2,3]benzodiazepine]
134 to 140	Cc1cc(C2=NN(c3nnc(C(C)C)s3)[C@H](C)Cc3cc4c(cc32)OCO4)ccc1N [Example 169, (R)-5-(4-Amino-3-methylphenyl)-7-(5-isopropyl-1,3,4-thiadiazol-2-yl)-8-methyl-8,9-dihydro-7H-1,3-dioxolo[4,5-h][2,3]benzodiazepine]
184 to 186	Cc1cc(C2=NN(c3nnc(CO)s3)[C@H](C)Cc3cc4c(cc32)OCO4)ccc1N [Example 171, (R)-5-(4-Amino-3-methylphenyl)-7-(5-hydroxymethyl-1,3,4-thiadiazol-2-yl)-8-methyl-8,9-dihydro-7H-1,3-dioxolo[4,5-h][2,3]benzodiazepine]

From patent US20070027143A1, “Novel substituted 2,3-benzodiazepine derivatives” (priority 2003, published 2007)
